Laboratory results as given in the supplement of paper PMC8967900.

Experiments:
Test in all cases: selective drug sensitivity score (sDSS, relative to normal bone marrow) (sDSS (score)); higher = more potent and effective on the cell line relative to normal bone marrow cells
Details in all cases: 72 h
MHH-CALL-3 = tested on: MHH-CALL-3
COG-LL-332h = tested on: COG-LL-332h
MOLT-14 = tested on: MOLT-14
PF-382 = tested on: PF-382
KARPAS-45 = tested on: KARPAS-45
ALL-SIL = tested on: ALL-SIL
SEM cells = tested on: SEM cells
HAL-01 = tested on: HAL-01
MHH-CALL-2 = tested on: MHH-CALL-2
RPMI-8402 = tested on: RPMI-8402
COG-LL-402h = tested on: COG-LL-402h
LC4-1 = tested on: LC4-1
NALM-16 = tested on: NALM-16
TMD5 = tested on: TMD5
KASUMI-9 = tested on: KASUMI-9
COG-LL-355h = tested on: COG-LL-355h
NALM-6 = tested on: NALM-6
CCRF-HSB2 = tested on: CCRF-HSB2
P12-ICHIKAWA = tested on: P12-ICHIKAWA
MHH-CALL-4 = tested on: MHH-CALL-4
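Also: ALL cell lines in 384-well plates, five doses spanning 10,000-fold, each plate scaled between vehicle and 100 µmol/L benzalkonium chloride controls, sDSS an adapted area-under-curve metric.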

| Structure (SMILES) | selective drug sensitivity score (MHH-CALL-3) | selective drug sensitivity score (COG-LL-332h) | selective drug sensitivity score (MOLT-14) | selective drug sensitivity score (PF-382) | selective drug sensitivity score (KARPAS-45) | selective drug sensitivity score (ALL-SIL) | selective drug sensitivity score (SEM cells) | selective drug sensitivity score (HAL-01) | selective drug sensitivity score (MHH-CALL-2) | selective drug sensitivity score (RPMI-8402) | selective drug sensitivity score (COG-LL-402h) | selective drug sensitivity score (LC4-1) | selective drug sensitivity score (NALM-16) | selective drug sensitivity score (TMD5) | selective drug sensitivity score (KASUMI-9) | selective drug sensitivity score (COG-LL-355h) | selective drug sensitivity score (NALM-6) | selective drug sensitivity score (CCRF-HSB2) | selective drug sensitivity score (P12-ICHIKAWA) | selective drug sensitivity score (MHH-CALL-4) |
| --- | --- | --- | --- | --- | --- | --- | --- | --- | --- | --- | --- | --- | --- | --- | --- | --- | --- | --- | --- | --- |
| CCc1c(C(=O)C(N)=O)c2c(OCC(=O)O)cccc2n1Cc1ccccc1 [Varespladib] (top concentration 10000 nM) | -0.84 | -0.64 | -0.84 | -0.84 | -0.84 | -0.84 | -0.84 | -0.84 | -0.84 | -0.84 | 6.36 | -0.84 | 0.56 | -0.84 | -0.84 | -0.84 | -0.84 | 0.36 | -0.84 | 3.56 |
| CCCCCCCCc1ccc(CCC(N)(CO)CO)cc1 [Fingolimod] (top concentration 10000 nM) | -3.42 | 1.38 | 2.08 | -0.62 | -0.02 | 1.98 | 0.48 | 1.88 | 8.88 | -1.12 | -0.92 | 0.88 | -0.02 | 0.48 | 0.08 | 6.88 | 1.58 | 0.48 | -0.92 | 1.58 |
| Clc1ccccc1C(c1ccccc1)(c1ccccc1)n1cccn1 [TRAM-34] (top concentration 1000 nM) | -0.08 | -0.08 | -0.08 | -0.08 | -0.08 | -0.08 | -0.08 | 2.72 | 1.12 | -0.08 | -0.08 | -0.08 | -0.08 | -0.08 | 2.52 | -0.08 | -0.08 | -0.08 | -0.08 | -0.08 |
| CCS(=O)(=O)Nc1ccc(Oc2ccc(F)cc2F)c(-c2cn(C)c(=O)c3[nH]ccc23)c1 [Mivebresib] (top concentration 10000 nM) | 17.2 | -3.9 | 2.7 | 8 | 14 | 1.7 | 16 | 1.1 | 14.8 | 4.6 | 12.7 | 8.9 | 0.5 | -5.7 | 17.4 | 6 | 6 | 1.3 | 9.9 | 12.5 |
| Cc1nc(=O)c2cc(CN(C)c3ccc(C(=O)N[C@@H](CCC(=O)O)C(=O)O)s3)ccc2[nH]1 [Raltitrexed] (top concentration 1000 nM) | 9.92 | 18.3 | 17.7 | 13.1 | 9.52 | 17.3 | 23.9 | 21.2 | 19.6 | 23.4 | 8.22 | 19.3 | 9.12 | -0.68 | 15.2 | 4.82 | 23 | 21.9 | 20.4 | 16.1 |
| COc1cc2c(Nc3ccc(Cl)c(Cl)c3F)ncnc2cc1OC[C@@H]1C[C@@H]2CN(C)C[C@@H]2C1 [Tesevatinib] (top concentration 1000 nM) | 3.64 | -0.86 | -0.56 | -1.06 | 0.74 | -0.26 | 1.44 | 2.44 | 1.44 | 0.44 | 1.64 | -1.16 | -1.36 | 3.24 | 0.74 | 2.04 | -0.16 | 3.44 | -0.46 | 2.34 |
| Cc1ccc(-c2cc(C(F)(F)F)nn2-c2ccc(S(N)(=O)=O)cc2)cc1 [Celecoxib] (top concentration 10000 nM) | 5.24 | 0.34 | -0.06 | 0.24 | 0.34 | 0.54 | -0.06 | 0.04 | 0.34 | 0.54 | -0.06 | 1.24 | -0.06 | 1.34 | -0.06 | -0.06 | -0.06 | -0.06 | 0.24 | -0.06 |
| Cc1ccc(NS(=O)(=O)c2cccc(C#N)c2)c2[nH]cc(C#N)c12 [E7820] (top concentration 50000 nM) | 7.82 | 22.1 | 21.3 | 10.2 | 20.1 | 20.2 | 19.5 | 12.3 | 19.4 | 17.9 | 17.2 | 11.8 | 1.82 | 7.32 | 12.7 | 6.22 | 19.2 | 18 | 15.4 | 7.62 |
| O=C(Nc1cnn2ccc(N3CCC[C@@H]3c3cc(F)ccc3F)nc12)N1CC[C@H](O)C1 [Larotrectinib] (top concentration 1000 nM) | -0.62 | -0.62 | -0.62 | -0.62 | -0.62 | -0.62 | -0.62 | 0.68 | -0.52 | -0.62 | 2.78 | 1.28 | -0.62 | -0.62 | 0.98 | 0.48 | 0.48 | -0.62 | -0.62 | -0.62 |
| O=C1CCC(N2C(=O)c3ccccc3C2=O)C(=O)N1 (stereo not given) [Thalidomide] (top concentration 10000 nM) | -0.14 | -0.14 | -0.14 | -0.14 | -0.14 | -0.14 | -0.14 | 0.36 | -0.14 | -0.14 | -0.14 | -0.14 | -0.14 | -0.14 | -0.14 | 0.16 | -0.14 | -0.14 | -0.14 | -0.14 |
| C[C@]1(O)C[C@@H](c2nc(-c3ccc4ccc(-c5ccccc5)nc4c3)c3c(N)nccn32)C1 [Linsitinib] (top concentration 10000 nM) | -3.18 | -2.78 | -3.18 | -2.88 | -3.18 | 2.22 | 0.62 | -1.78 | 2.32 | -2.08 | -3.18 | 0.92 | -3.18 | 1.62 | -2.98 | 3.12 | -3.18 | -2.28 | -3.18 | 0.22 |
| Cc1ccc(-n2nc(C(C)(C)C)cc2NC(=O)Nc2ccc(OCCN3CCOCC3)c3ccccc23)cc1 [Doramapimod] (top concentration 10000 nM) | -0.24 | 4.36 | -0.24 | 0.46 | -0.24 | -0.24 | 1.06 | -0.24 | 4.56 | 1.96 | 2.66 | 1.76 | 7.06 | -0.14 | 4.56 | 1.26 | -0.24 | 2.76 | 0.26 | -0.24 |
| c1cn2cc(-c3ccc4cn[nH]c4c3)nc(Nc3ccc(N4CCOCC4)cc3)c2n1 [Entospletinib] (top concentration 5000 nM) | -0.64 | -0.64 | -0.64 | -0.64 | -0.64 | -0.64 | 4.56 | -0.64 | -0.64 | -0.64 | 0.36 | -0.64 | -0.64 | -0.64 | 2.96 | 1.06 | 1.26 | -0.64 | -0.64 | -0.64 |
| O=C(Nc1cc(Cl)cc2c1[nH]c1cnccc12)c1cccnc1 [PS-1145] (top concentration 25000 nM) | -0.46 | -0.46 | -0.46 | -0.46 | 0.34 | -0.46 | 0.04 | 2.14 | 6.74 | -0.46 | -0.46 | -0.46 | -0.46 | -0.46 | 0.44 | -0.46 | -0.46 | 1.34 | -0.46 | -0.46 |
| CC[C@@H]1[C@H](F)C(=O)N[C@@H]1COc1nccc2cc(C(N)=O)c(OC)cc12 (top concentration 10000 nM) | 1.58 | -0.42 | 1.38 | -0.42 | 2.58 | -1.32 | 1.48 | -1.32 | -0.22 | 1.38 | 3.08 | 0.08 | -1.32 | -1.32 | 0.08 | 1.28 | 4.48 | 1.88 | 0.18 | -0.92 |
| COc1cc(Nc2c(C#N)cnc3cc(OCCCN4CCN(C)CC4)c(OC)cc23)c(Cl)cc1Cl [Bosutinib] (top concentration 10000 nM) | 8.06 | 6.56 | 1.86 | 4.76 | 2.46 | 26.7 | 1.96 | -0.54 | 7.66 | 1.56 | 5.66 | 0.96 | -3.04 | 9.06 | 4.06 | 1.86 | -1.24 | 27 | 0.96 | -3.14 |
| CN1CCN(C2CCN(C(=O)Nc3cc(Oc4ccc(NC(=O)C5(C(=O)Nc6ccc(F)cc6)CC5)c(F)c4)ccn3)CC2)CC1 [Golvatinib] (top concentration 2500 nM) | -0.14 | 0.86 | -0.14 | -0.14 | 0.76 | 4.56 | 6.56 | 0.76 | 0.26 | 0.26 | -0.14 | 2.46 | -0.14 | 0.76 | 0.66 | -0.14 | 1.06 | 2.96 | -0.14 | -0.14 |
| CCOc1ccn(-c2ccc(F)cc2)c(=O)c1C(=O)Nc1ccc(Oc2ccnc(N)c2Cl)c(F)c1 (top concentration 2500 nM) | 0 | 3.2 | 0 | 0 | 2.2 | 8 | 4.9 | 0.1 | 0 | 0.4 | 0 | 0 | 1 | 0 | 0 | 0 | 2 | 3.2 | 3 | 0 |
| CC[C@@H]1C(=O)OC[C@@H]1Cc1cncn1C [Pilocarpine] (top concentration 40000 nM) | -1.56 | -1.56 | -0.36 | -1.56 | -1.56 | -0.76 | -1.56 | -1.56 | 4.44 | -1.56 | -1.56 | -1.56 | -1.56 | -1.56 | -1.56 | -1.56 | -1.56 | -1.56 | -1.56 | -1.56 |
